Measurements reported in paper PMC10989020, “Preclinical characterization of a non-peptidomimetic HIV protease inhibitor with improved metabolic stability” (Antimicrobial Agents and Chemotherapy, 2024).

What was measured:
[1] = In vivo pharmacokinetics in monkey; conditions: cynomolgus monkey
Experimental: (§1) Preclinical pharmacokinetic studies were performed in male Sprague–Dawley rats, beagle dogs, and cynomolgus monkeys (three animals per dosing group in each species) following federal and Institutional Animal Care and Use Committee (IACUC) guidelines as described previously ([32]). […] The oral fraction absorbed (F%) was calculated using the formula:
(§2) %F=( PO Dose AUC0−inf) x (IV Dose)/(IV Dose AUC0−inf) x (PO Dose)×100%

in vitro [2] = assay type: cell-based; conditions: human
Experimental: (§3) Compound cytotoxicity assessment in MT-4 cells, primary CD4+ T lymphocytes, and MDMs was carried out using a protocol identical to the antiviral assay except uninfected cells were used and tested with higher concentration ranges of test compounds. Assessment of cytotoxicity in additional human cell lines (Gal-PC3, Gal-HepG2, HEp-2, Huh-7, MRC-5, HepG2-NTCP, Huh7-Lunet HCV 1b and 2a replicons, NHBE, A549-hACE2) and primary human PBMCs (resting and stimulated with PHA/IL-2) and hepatocytes have been described previously ([19]). For all cytotoxicity assays, the CC50 value for puromycin was determined as a positive internal control and to assess assay sensitivity in each cell type. The effect of tested compounds on cell viability was measured using a CellTiter-Glo readout, performed according to the manufacturer’s recommendations.

[3] = Cytotoxicity in unstimulated PBMCs; assay type: cell-based; conditions: human, unstimulated (resting) PBMCs
Experimental: as §3

Cytotoxicity in MRC-5 = assay type: cell-based; conditions: human, MRC-5 cells
Experimental: as §3

SARS-CoV-2 = assay: SARS-CoV2-Nluc reporter antiviral assay; conditions: Severe acute respiratory syndrome coronavirus 2
Experimental: (§4) The hepatitis B virus (HBV) surface antigen (HBsAg) antiviral assay was performed as previously described ([28]) using ND-654 as a positive control. The respiratory syncytial virus (RSV) A2 HEp-2 antiviral assay was performed as previously described ([29]) using YM-53403 as a positive control. The severe acute respiratory syndrome coronavirus 2 (SARS-CoV-2) antiviral assay was performed as described previously ([30]) using remdesivir as a positive control.

HIV-1 IIIb = assay: 5-day cytoprotection antiviral assay in MT-4 cells; assay type: cell-based
[4] = Cytotoxicity in CD4+ T-lymphocytes; assay type: cell-based; conditions: human, uninfected (mock infected) primary CD4+ T lymphocytes
Experimental: as §3

HIV-1 BaL = assay: p24 production antiviral assay in monocyte-derived macrophages; assay type: cell-based; conditions: Human immunodeficiency virus 1, Macrophage, HIV-1BaL infected
From the text: Antiviral assays performed in HIV-1BaL infected CD4 +T-lymphocytes and monocyte-derived macrophages (MDMs) have been described previously ([18]). Cell-free supernatants derived from the CD4 +T cell and macrophage cultures were harvested 7- and 12-days post-infection, respectively, and the amount of HIV present was quantified by p24 antigen enzyme-linked immunosorbent assay (ELISA, Perkin Elmer, Waltham, MA) performed according to the manufacturer’s protocol.

HIV-1IIIb = assay: Antiviral activity in MT-2/HIV-1IIIb cultures; assay type: cell-based; conditions: Human immunodeficiency virus 1
Cytotoxicity in NHBE = assay type: cell-based; conditions: human, NHBE cells
Experimental: as §3

two HIV-2 isolates = assay: Antiviral assay in PBMCs with HIV-2 clinical isolates (RT endpoint); assay type: cell-based; conditions: Human immunodeficiency virus 2, PBMC, 168 h, 7-day, RT activity
Experimental: Antiviral assays using fresh human PBMCs independently infected with a panel of clinical HIV-1 and HIV-2 isolates were performed by Southern Research as a contracted research study and assessed 7 days post-infection using reverse transcriptase (RT) endpoint assay. Antiviral assays using HIV-1 reporter viruses containing patient-derived sequences encoding all of PR and a portion of RT (amino acids 1–313) and conferring resistance to FDA-approved HIV PIs were performed by Monogram Biosciences Inc. (South San Francisco, CA) using their previously described Phenosense assay ([25]).

HBV = assay: microbe, parasite or virus in culture; conditions: Hepatitis B virus
Experimental: as §4

in vitro [5] = assay type: cell-based; conditions: human; remark: listed apart in the source
Experimental: as §3

[6] = In vivo pharmacokinetics in dog; set-up: species or system Beagle dog
Experimental: as §1, §2

[7] = Metabolic stability in human liver microsomes; assay type: in vitro ADME
[8] = Cytotoxicity in uninfected MT-4 cells; assay type: cell-based, human; conditions: human, uninfected (mock infected) MT-4 T cells, MT-4 T cell line
Experimental: as §3

[9] = Cytotoxicity in A549-hACE2; assay type: cell-based; conditions: human, A549-hACE2 cells
Experimental: as §3

RSV = assay: RSV-Fluc reporter antiviral assay; conditions: human respiratory syncytial virus, NHBE
Experimental: as §4

[10] = In vivo pharmacokinetics in rat; set-up: species or system Sprague-Dawley rat
Experimental: as §1, §2

## CC(C)(CC1(c2ccc(-c3cnn(C4CC4)n3)cc2)NC(=N)N(C(COC(=O)NC2(C(F)F)CC2)c2ccc(Cl)c(-c3ncnn3C(F)F)c2)C1=O)C(F)(F)F (stereo not drawn) [GS-9770]
[1]; 1 mg/kg IV, 4–5 mg/kg PO
  tolerability at the doses tested: well tolerated
[1]; plasma, 1 mg/kg IV
  clearance: 0.34 L/h/kg
[1]; plasma, 1 mg/kg IV and 4 mg/kg PO, read-out: F% (oral bioavailability)
  bioavailability: 100 ± 34%
[1]; plasma, 1 mg/kg IV and 4 mg/kg PO, read-out: Terminal t1/2 (converted)
  half-life: 7.4 ± 0.2 h
[1]; plasma, 1 mg/kg IV, read-out: Vss
  Vd: 2.6 ± 0.8 L/kg
In vitro [2]
  CC50: 15.1 ± 3 µM
[3]
  CC50: 9.1 ± 5.5 µM
Cytotoxicity in MRC-5
  CC50: 20 ± 6 µM
SARS-CoV-2
  EC50: 5.3 ± 1.9 µM
HIV-1 IIIb; Human immunodeficiency virus 1, IIIB, T-cell, 120 h
  EC50: 0.011 ± 0.002 µM
HIV-1 IIIb; calculated from MT-4/HIV-1IIIb EC50 and Hill coefficient
  95% effective concentration (EC95): 0.0216 µM
[4]
  CC50: 9 ± 0.4 µM
HIV-1 BaL
  EC50: 0.011 ± 0.014 µM
HIV-1IIIb
  EC50: 0.004 µM
Cytotoxicity in NHBE
  CC50: 4.7 ± 1.7 µM
Two HIV-2 isolates
  EC50: 0.026 µM
HBV
  EC50: 11 ± 4 µM
In vitro [5]
  CC50: 15.1 ± 2.1 µM
[6]; 1 mg/kg IV, 1 mg/kg
  CL: 1.1 ± 0.3 L/h/kg
[6]; 1 mg/kg IV, 4–5 mg/kg PO
  tolerability at the doses tested: well tolerated
[6]; beagle, plasma, 1 mg/kg IV and 5 mg/kg PO, read-out: F% (oral bioavailability)
  bioavailability: 100 ± 20%
[6]; beagle, plasma, 1 mg/kg IV and 5 mg/kg PO, read-out: Terminal t1/2 (converted)
  half-life: 6.7 ± 0.6 h
[6]; beagle, plasma, 1 mg/kg IV, read-out: Vss
  Vd: 5 ± 0.5 L/kg
[6]; beagle, plasma, iv, 1 mg/kg, 1 mg/kg IV
  clearance: 1.13 L/h/kg
[7]
  Eh% (percent predicted hepatic extraction): 9%
  Predicted CL (predicted human clearance): 0.11 L/h/kg
[7]; read-out: T½ in the presence of human liver microsomes
  half-life: > 6.58 h
[8]
  CC50: 6.6 ± 1.3 µM
[9]
  CC50: 7.8 ± 2.1 µM
RSV
  EC50: 2.5 ± 0.6 µM
[10]; 1 mg/kg IV and 5 mg/kg PO
  F% (oral bioavailability): 45.9 ± 9.8%
[10]; 1 mg/kg IV, 4–5 mg/kg PO
  tolerability at the doses tested: well tolerated
[10]; male, Sprague-Dawley, plasma, 1 mg/kg IV
  clearance: 0.21 L/h/kg
[10]; male, Sprague-Dawley, plasma, 1 mg/kg IV and 5 mg/kg PO, read-out: Terminal t1/2 (converted)
  half-life: 10.6 ± 1.4 h
[10]; male, Sprague-Dawley, plasma, 1 mg/kg IV, read-out: Vss
  Vd: 2.7 ± 0.3 L/kg
[10]; male, Sprague-Dawley, plasma, oral, 5 mg/kg, 1 mg/kg IV and 5 mg/kg PO, read-out: F% (oral bioavailability)
  bioavailability: 49%
